Where “and” joins values, the source holds several entries; their conditions need not be identical. Equal entries are not always repeated. Inconclusive results and toxic doses are left out. Cut-off read from the data, not from the text of the source: active = T/C of 150% or more; inactive = T/C below 125%.
System: L1210 leukemia ip in BDF1 mice, survival T/C
Assay: NCI In Vivo Anticancer Drug Screen. Data for tumor model L1210 Leukemia (intraperitoneal) in B6D2F1 (BDF1) mice
Details: endpoint: mean survival time, higher = longer survival
In short: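 Transplantable tumor model; survival measured in treated vs vehicle control mice. Value = treated/control.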

[1] = dose: 100.0 mg/kg/injection, schedule: Q01DX001 (ip), vehicle: saline
[2] = dose: 200.0 mg/kg/injection, schedule: Q01DX001 (ip), vehicle: saline
[3] = dose: 12.5 mg/kg/injection, schedule: Q01DX009 (ip), vehicle: Klucel (hydroxypropylcellulose) (HPC)
[4] = dose: 100.0 mg/kg/injection, schedule: Q01DX001 (ip), vehicle: carboxymethylcellulose (CMC)
[5] = dose: 200.0 mg/kg/injection, schedule: Q01DX001 (ip), vehicle: carboxymethylcellulose (CMC)
[6] = dose: 400.0 mg/kg/injection, schedule: Q01DX001 (ip), vehicle: carboxymethylcellulose (CMC)
[7] = dose: 100.0 mg/kg/injection, schedule: Q01DX001 (ip), vehicle: Klucel (hydroxypropylcellulose) (HPC)
[8] = dose: 100.0 mg/kg/injection, schedule: Q01DX009 (ip), vehicle: Klucel (hydroxypropylcellulose) (HPC)
[9] = dose: 200.0 mg/kg/injection, schedule: Q01DX001 (ip), vehicle: Klucel (hydroxypropylcellulose) (HPC)
[10] = dose: 200.0 mg/kg/injection, schedule: Q01DX009 (ip), vehicle: Klucel (hydroxypropylcellulose) (HPC)
[11] = dose: 400.0 mg/kg/injection, schedule: Q01DX001 (ip), vehicle: Klucel (hydroxypropylcellulose) (HPC)
[12] = dose: 100.0 mg/kg/injection, schedule: Q04DX003 (ip), vehicle: Klucel (hydroxypropylcellulose) (HPC)
[13] = dose: 200.0 mg/kg/injection, schedule: Q04DX003 (ip), vehicle: Klucel (hydroxypropylcellulose) (HPC)
[14] = dose: 400.0 mg/kg/injection, schedule: Q04DX003 (ip), vehicle: Klucel (hydroxypropylcellulose) (HPC)
[15] = dose: 400.0 mg/kg/injection, schedule: Q01DX009 (ip), vehicle: Klucel (hydroxypropylcellulose) (HPC)
[16] = dose: 400.0 mg/kg/injection, schedule: Q01DX001 (ip), vehicle: saline

Measured: T/C

CC(=O)/C(=C(/C)OB(F)F)C(C)C
inactive: dose: 50.0 mg/kg/injection, schedule: Q01DX001 (ip), vehicle: saline 102 % of control | [1] 104 % of control | [2] 102 % of control

CC(C)C1(Br)C(=O)NC(=O)NC1=O
inactive: dose: 6.25 mg/kg/injection, schedule: Q01DX009 (ip), vehicle: Klucel (hydroxypropylcellulose) (HPC) 103 % of control | [3] 108 % of control

N#Cc1c2ccccc2nc2ccccc12
inactive: dose: 50.0 mg/kg/injection, schedule: Q01DX001 (ip), vehicle: carboxymethylcellulose (CMC) 90 % of control | [4] 92 % of control | [5] 90 % of control | [6] 90 % of control

O=Cc1cc(C(=O)c2ccccn2)c2cc(Cl)cc(Cl)c2n1
inactive: [7] 94 % of control | [8] 107 % of control | [9] 89 % of control | [10] 96 % of control | [11] 94 % of control

COc1cc2cc[n+](C)cc2cc1OC
inactive: dose: 50.0 mg/kg/injection, schedule: Q01DX009 (ip), vehicle: saline 111 % of control | dose: 100.0 mg/kg/injection, schedule: Q01DX009 (ip), vehicle: saline 108 % of control | dose: 100.0 mg/kg/injection, schedule: Q04DX003 (ip), vehicle: saline 104 % of control | dose: 200.0 mg/kg/injection, schedule: Q04DX003 (ip), vehicle: saline 107 % of control

CC12CCC3C(CC=C4CC(SC(=N)N)CCC43C)C1CCC2=O (stereo not given)
inactive: [7] 95 % of control | [12] 97 % of control | [9] 95 % of control | [13] 95 % of control | [11] 101 % of control | [14] 97 % of control

NC(=O)C#CC(N)=O
inactive: [8] 97 % of control | [12] 95 % of control | [10] 109 % of control | [13] 97 % of control | [15] 92 % of control | [14] 92 % of control

Cc1ccc(C)n1CCO
inactive: dose: 44.0 mg/kg/injection, schedule: Q01DX Z (ip), vehicle: saline 106 % of control | dose: 66.0 mg/kg/injection, schedule: Q01DX Z (ip), vehicle: saline 94 % of control | dose: 100.0 mg/kg/injection, schedule: Q01DX Z (ip), vehicle: saline 96 % of control

c1ccc(CCNc2ccnc3ccccc23)cc1
inactive: [3] 103 % of control | dose: 12.5 mg/kg/injection, schedule: Q04DX003 (ip), vehicle: Klucel (hydroxypropylcellulose) (HPC) 104 % of control | dose: 25.0 mg/kg/injection, schedule: Q01DX009 (ip), vehicle: Klucel (hydroxypropylcellulose) (HPC) 101 % of control | dose: 25.0 mg/kg/injection, schedule: Q04DX003 (ip), vehicle: Klucel (hydroxypropylcellulose) (HPC) 97 % of control | dose: 50.0 mg/kg/injection, schedule: Q04DX003 (ip), vehicle: Klucel (hydroxypropylcellulose) (HPC) 95 % of control

O=C(OCC(OC(=O)c1ccccc1)C(OC(=O)c1ccccc1)C(OC(=O)c1ccccc1)C(SCc1ccccc1)SCc1ccccc1)c1ccccc1 (stereo not given)
inactive: [4] 101 % of control | [5] 97 % of control | [6] 95 % of control

CCOC(=O)C1=C2c3ccc4ccccc4c3CCC2(C)C(=O)C1 (stereo not given)
inactive: dose: 75.0 mg/kg/injection, schedule: Q01DX001 (sc), vehicle: steriod suspending solution 98 % of control | dose: 75.0 mg/kg/injection, schedule: Q01DX009 (sc), vehicle: steriod suspending solution 106 % of control | dose: 150.0 mg/kg/injection, schedule: Q01DX001 (sc), vehicle: steriod suspending solution 103 % of control | dose: 150.0 mg/kg/injection, schedule: Q01DX009 (sc), vehicle: steriod suspending solution 101 % of control | dose: 300.0 mg/kg/injection, schedule: Q01DX001 (sc), vehicle: steriod suspending solution 93 % of control | dose: 300.0 mg/kg/injection, schedule: Q01DX009 (sc), vehicle: steriod suspending solution 105 % of control

CC(C)(C)C(=O)CN1C(=O)c2ccccc2C1=O
inactive: [7] 108 % of control | [8] 96 % of control and 97 % of control | dose: 100.0 mg/kg/injection, schedule: Q04DX002 (ip), vehicle: Klucel (hydroxypropylcellulose) (HPC) 101 % of control and 103 % of control | [12] 101 % of control | [9] 112 % of control | [10] 96 % of control and 104 % of control | dose: 200.0 mg/kg/injection, schedule: Q04DX002 (ip), vehicle: Klucel (hydroxypropylcellulose) (HPC) 98 % of control and 103 % of control | [13] 95 % of control | [11] 118 % of control | [15] 97 % of control and 108 % of control | dose: 400.0 mg/kg/injection, schedule: Q04DX002 (ip), vehicle: Klucel (hydroxypropylcellulose) (HPC) 103 % of control and 109 % of control | [14] 103 % of control

Cc1cc(C)c2ccc(=O)[nH]c2n1
inactive: [1] 92 % of control | [2] 101 % of control | [16] 101 % of control

O=C(Nc1ccccc1F)OCC1CC2C=CC1C2 (stereo not given)
inactive: [8] 101 % of control | [10] 104 % of control | [15] 93 % of control

O=C1OC2CCCCC1CC2 (stereo not given)
inactive: [1] 108 % of control | [2] 110 % of control | [16] 87 % of control

CC(=O)c1ccc(CC2CC3CCC2C3)cc1 (stereo not given)
inactive: [7] 112 % of control | [12] 94 % of control | [9] 96 % of control | [13] 89 % of control | [11] 89 % of control | [14] 98 % of control

COC(OC)c1cc(S)[nH]c(=O)c1F
inactive: [12] 98 % of control | [13] 97 % of control | [14] 103 % of control

COC(=O)C(CCSC)NC(=O)C(C)NC(=O)c1cnc2ccccc2n1 (stereo not given)
inactive: [4] 91 % of control | [5] 94 % of control | [6] 98 % of control
